In patent US20030228583A1, “Biomarkers of liver response” (priority 2001, published 2003):

Tests used:
[1] = system: Liver Response-Associated Features (LRFs) in liver tissue; test: Proteome analysis (2D electrophoresis, Reference Protocol) of liver tissue of drug-treated vs control animals: relative abundance of LRFs
Description: Samples from animals treated with various drugs at various timepoints and various dose levels can be collected, prepared, and analysed as described herein. […] Using the following procedure, proteins in liver tissue and serum/plasma from 5 control animals and 5 animals having liver response induced through drug treatment were separated by isoelectric focusing followed by SDS-PAGE and analyzed. Samples were taken and analyzed at three different time points designated “early”, “full manifestation” and “late”. Parts 6.1.1 to 6.1.9 (inclusive) of the procedure set forth below are hereby designated as the “Reference Protocol”.
At the time of necropsy, approximately 2 g section of the liver's median lobe was removed to a conical tube and quick-frozen in liquid nitrogen. The frozen liver section was then pulverized for 1 minute using a freezer mill as follows:
Approximately 10-20 mg pulverized liver was solubilized with 10 ul protease inhibitor and 1.5 ml lysis solution and vortexed well. The sample was allowed to remain at room temperature for 10 minutes, was vortexed again, and then pelleted using an Eppendorf 5417R Centrifuge for 10 minutes at 13000g at 15 EC. The resulting supernatant was frozen at −80° C.
The sample was heated at 95° C. for 5 mins, and then allowed to cool to 20° C. 125 μl of the following buffer was then added to the sample:
This mixture was vortexed, and centrifuged at 13000 rpm for 5 mins at 15° C., and the supernatant was analysed by isoelectric focusing. An assay for protein content was carried out on the final sample (Pierce BCA Cat #23225).
Isoelectric focusing (IEF), was performed using the Immobiline® DryStrip Kit (Pharmacia BioTech), following the procedure described in the manufacturer's instructions, see Instructions for Immobilineg DryStrip Kit, Pharmacia, #18-1038-63, Edition AB (incorporated herein by reference in its entirety). Immobilized pH Gradient (IPG) strips (18 cm, pH 3-10 non-linear strips; Pharmacia Cat. #17-1235-01) were rehydrated overnight at 20° C. in a solution of 8M urea, 2% (w/v) CHAPS, 10 mM DTT, 2% (v/v) Resolytes 3.5-10, as described in the Immobiline DryStrip Users Manual. For IEF, 50 μl of supernatant (prepared as above) was loaded onto a strip, with the cup-loading units being placed at the basic end of the strip. The loaded gels were then covered with mineral oil (Pharmacia 17-3335-01) and a voltage was immediately applied to the strips according to the following profile, using a Pharmacia EPS3500XL power supply (Cat 19-3500-01):
After the final 19 hr step, the strips were immediately removed and immersed for 10 mins at 20° C. in a first solution of the following composition: 6M urea; 2% (w/v) DTT; 2% (w/v) SDS; 30% (v/v) glycerol (Fluka 49767); 0.05M Tris/HCl, pH 6.8 (Sigma Cat T-1503). The strips were removed from the first solution and immersed for 10 mins at 20° C. in a second solution of the following composition: 6M urea; 2% (w/v) iodoacetamide (Sigma 1-6125); 2% (w/v) SDS; 30% (v/v) glycerol; 0.05M Tris/HCl, pH 6.8.
A 9-16% linear polyacrylamide gradient was cast, extending up to a point 2 cm below the level of the notch in the front plate, using the Angelique gradient casting system (Large Scale Biology). Stock solutions were as follows. Acrylamide (40% in water) was from Serva (Cat. #10677). […] The gel buffer was 0.375M Tris/HCl, pH 8.8. The polymerization catalyst was 0.05% (v/v) TEMED (BioRad 161-0801), and the initiator was 0.1% (w/v) APS (BioRad 161-0700). No SDS was included in the gel and no stacking gel was used. The cast gels were allowed to polymerize at 20° C. overnight, and then stored at 4° C. in sealed polyethylene bags with 6 ml of gel buffer, and were used within 4 weeks.
A solution of 0.5% (w/v) agarose (Fluka Cat 05075) was prepared in running buffer (0.025 M Tris, 0.198 M glycine (Fluka 50050), 1% (w/v) SDS, supplemented by a trace of bromophenol blue). The agarose suspension was heated to 70° C. with stirring, until the agarose had dissolved.

[2] = system: Male Sprague-Dawley rats; test: Phenobarbital rat toxicity study (clinical observations, body weight, clinical laboratory measurements, organ weights, histopathology)
[3] = final necropsy (twelve days post dose)

CCC1(c2ccccc2)C(=O)NC(=O)NC1=O [phenobarbital]
Fold Change LRF-24 ([1]; Early, P 0.0075): 3.34 fold | Fold Change LRF-17 ([1]; Early, P 0.0212): 1.61 fold | Fold Change LRF-26 ([1]; Early, P 0.0216): 1.33 fold | Fold Change LRF-37 ([1]; Early, P 0.0254): 3.98 fold | Fold Change LRF-112 ([1]; Late, P 0.0075): 5.38 fold | Fold Change LRF-115 ([1]; Late, P 0.0075): 3.16 fold | Fold Change LRF-85 ([1]; Middle, P 0.0122): 1.72 fold | Fold Change LRF-60 ([1]; Middle, P 0.0216): 1.67 fold | Fold Change LRF-80 ([1]; Middle, P 0.0216): 1.40 fold | Fold Change LRF-90 ([1]; Middle, P 0.0216): 1.47 fold | Fold Change LRF-66 ([1]; Middle, P 0.0345): 1.93 fold | Fold Change LRF-74 ([1]; Middle, P 0.0361): 1.42 fold | Fold Change LRF-83 ([1]; Middle, P 0.0367): 1.40 fold | Clinical observations ([2]; 100 mg/kg/day oral gavage, rat): generally well tolerated with no adverse clinical signs observed in any of the control or treated groups other than decreased activity | Survival ([2]; 100 mg/kg/day oral gavage, rat): survived | Gross pathology observations ([2]; 100 mg/kg/day oral, rat): no treatment-related gross findings | Creatinine decreased ([2]; day 2, 100 mg/kg/day oral, rat): 1.7 × | Serum/plasma urea nitrogen decreased ([2]; day 2, 100 mg/kg/day oral, rat): 1.8 × | Total protein decreased ([2]; day 2, 100 mg/kg/day oral, rat): 1.1 × | Cholesterol increased ([2]; day 5, 100 mg/kg/day oral, rat): 1.5 × | Glucose decreased ([2]; day 5, 100 mg/kg/day oral, rat): 1.6 × | Serum/plasma urea nitrogen increased ([2]; day 12, 100 mg/kg/day oral, rat): 1.2 × | % reticulocytes ([2]; days 5 and 12): small but significant decreases | Group mean body weights vs concurrent controls ([2]; either interim necropsy): No significant treatment-related changes | Mean body weight vs concurrent controls ([2]; final necropsy): significant decrease | Absolute liver weights [2, 3]: about the same as control | Relative liver weight increased [2, 3]: about 1.06 × control mean | Liver weights increased ([2]; five days post dose): about 1.5 × control mean | Increased numbers of hepatocytes with apoptotic bodies or mitotic figures, incidence ([2]; same time point as centrilobular hypertrophy): 3 of 5 | Liver weights increased ([2]; two days post dose): about 1.1 × control mean | Centrilobular hypertrophy, incidence ([2]; two days post dose (so in the source)): 5 of 5 | Group means of the various hematology parameters (except % reticulocytes) ([2]; vs vehicle control animals): not altered
